Data as given in ChEMBL document CHEMBL1201862, “PubChem BioAssay data set” (2004).
The source made the active and inactive calls.

Tests used:
[1] = non-specific cell cytotoxicity, dose response, cytotoxicity control for PAX8 inhibitor project, plate reader, dry powder samples (AID 743021); assay type: functional, cell-based
[2] = molecular target: DNA dC->dU-editing enzyme APOBEC-3G (Homo sapiens, UniProt Q9HC16); assay type: functional;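 further: Dose-response counterscreen measuring inhibition of APOBEC3G DNA deaminase activity, run while confirming APOBEC3A inhibitors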
[3] = molecular target: DNA dC->dU-editing enzyme APOBEC-3A (Homo sapiens, UniProt P31941); test: Dose Response confirmation of small molecule APOBEC3A DNA Deaminase Inhibitors via a fluorescence-based single-stranded DNA deaminase assay. [Related pubchem assays (depositor defined):AID493011, AID493024]; assay type: functional
[4] = molecular target: T1, DNA repair protein RAD52 homolog (Homo sapiens, UniProt P43351); assay type: functional, biochemical
T1 sequence (P43351 whole entry): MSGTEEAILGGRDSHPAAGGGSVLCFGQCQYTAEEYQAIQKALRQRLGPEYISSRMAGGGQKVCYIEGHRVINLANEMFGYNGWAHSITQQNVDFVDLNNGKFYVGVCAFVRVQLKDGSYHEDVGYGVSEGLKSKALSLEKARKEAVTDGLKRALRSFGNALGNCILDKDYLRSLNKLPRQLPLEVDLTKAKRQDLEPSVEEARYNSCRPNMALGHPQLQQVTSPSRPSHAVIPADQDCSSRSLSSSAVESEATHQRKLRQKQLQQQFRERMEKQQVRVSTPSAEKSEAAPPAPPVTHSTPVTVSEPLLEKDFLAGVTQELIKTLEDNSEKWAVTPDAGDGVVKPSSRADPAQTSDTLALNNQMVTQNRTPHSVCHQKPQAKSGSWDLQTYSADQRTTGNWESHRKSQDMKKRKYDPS

[5] = Luminescence Cell-Based Dose Response HTS to Identify Activators of Luciferase Translation or Activity in H4 […] Cells. [Related pubchem assays: 1829 (Project Summary), 1814 (Primary HTS)]; assay type: functional
[6] = cytotoxicity toward NIH3T3 fibroblasts, dose response, counter-screen, cell-based, ATP luminescence, mouse fibroblasts (AID 2010); assay type: functional;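 further: cells exposed to compound for about 90 hours before reading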
INS1 = test: beta cell apoptosis inhibitors, cytokine rescue, dose response, luminescence, retest (AID 449756); assay type: functional, cell-based; conditions: Rattus norvegicus;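 further: cell death triggered by IL-1 beta plus TNF-alpha plus IFN-gamma mixture; protective hits raise ATP signal compared with cytokine alone wells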
[7] = inhibitors of intracellular T. cruzi replication, confirmation, NIH3T3 host cells, beta-gal luminescence (AID 2044); assay type: functional, cell-based;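 further: intracellular parasites grown in NIH/3T3 mouse fibroblasts as host cells; luminescent beta-galactosidase reporter signal from transgenic T. cruzi replicating inside host cells; inhibitors lower the luminescence signal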
[8] = NIH-3T3 fibroblast cytotoxicity, dose response, cytotoxicity control, cell-based, fluorescence, Alamar Blue, secondary assay (AID 2327); assay type: functional;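 further: NIH-3T3 mouse fibroblasts cultured with fluconazole at 8 µg/mL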
H4 = test: Luminescence Cell-Based Dose Response HTS to Identify Activators of 5'UTR Stem-Loop Driven Prion Protein mRNA Translation in H4 Neuroglioblastoma Cells. [Related pubchem assays: 1829 (Project Summary), 1814 (Primary HTS)]; assay type: functional; conditions: Homo sapiens
[9] = Luminescence Cell-Based Dose Confirmation HTS to Identify Activators of 5'UTR Stem-Loop Driven Alpha-Synuclein mRNA Translation in H4 Neuroglioblastoma Cells. [Related pubchem assays: 1829 (Project Summary), 1814 (Primary HTS)]; assay type: functional
[10] = cytotoxicity in HEK-293T cells, dose response, cytotoxicity control for BCR NF-kB inhibitor project, luminescence, B-cell screen hits (AID 489021); assay type: functional, cell-based;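 further: HEK-293T cells carrying an NF-kB luciferase reporter; cells exposed to compound for about 14 hours before viability readout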
[11] = C. albicans growth with fluconazole, confirmation, fluorescence, retest (AID 2467); assay type: functional, cell-based
[12] = molecular target: Dual specificity tyrosine-phosphorylation-regulated kinase 1A (Rattus norvegicus, UniProt Q63470); assay type: biochemical, Homo sapiens
cells [13] = test: cells
[14] = molecular target: Eukaryotic translation initiation factor 4E (Mus musculus, UniProt P63073); test: eIF4E–eIF4G protein interaction inhibitors, dose response, biochemical, TR-FRET (AID 855); assay type: functional;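 further: potency for disrupting eIF4E binding to eIF4GI seen as loss of FRET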
Genome polyprotein = Genome polyprotein (dengue virus type 2, UniProt P29990); test: Dengue-2 NS5 methyltransferase inhibitors, primary screen, biochemical, confirmation dose response (AID 588689); assay type: functional
cells [15] = test: cells; remark: listed apart in the source
[16] = HEp-2 cell cytotoxicity, dose response, cytotoxicity control for RSV inhibitor project, HTS (AID 2410); assay type: functional; conditions: human respiratory syncytial virus
[17] = molecular target: T2, Heat shock factor protein 1 (Mus musculus, UniProt P38532); test: inhibition of MG132-induced HSE-luciferase signal, confirmation, cell-based, NIH3T3, luminescence, dose retest (AID 2382); assay type: functional;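 further: NIH3T3 fibroblasts with HSF1-driven luciferase reporter stressed by proteasome inhibitor MG132; luminescence from HSF1-driven luciferase expression after 8 hours of MG132 stress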
T2 sequence (P38532 whole entry): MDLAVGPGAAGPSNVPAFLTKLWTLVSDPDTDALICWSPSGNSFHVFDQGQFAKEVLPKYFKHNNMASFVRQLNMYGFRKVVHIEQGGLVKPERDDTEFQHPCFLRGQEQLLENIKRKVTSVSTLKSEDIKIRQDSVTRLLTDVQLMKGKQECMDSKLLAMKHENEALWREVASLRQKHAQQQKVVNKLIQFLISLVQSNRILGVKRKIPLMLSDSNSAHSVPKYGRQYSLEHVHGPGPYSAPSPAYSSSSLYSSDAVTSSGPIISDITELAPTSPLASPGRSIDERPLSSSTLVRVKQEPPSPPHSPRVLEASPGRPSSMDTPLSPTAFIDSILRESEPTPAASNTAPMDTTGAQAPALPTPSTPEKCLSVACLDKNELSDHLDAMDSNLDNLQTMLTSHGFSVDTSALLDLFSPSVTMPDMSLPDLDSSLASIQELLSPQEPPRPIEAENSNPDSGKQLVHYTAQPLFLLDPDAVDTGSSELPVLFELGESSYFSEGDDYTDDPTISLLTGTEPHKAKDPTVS

Leucine aminopeptidase = molecular target: T3, Leucine aminopeptidase (Plasmodium falciparum 3D7, UniProt Q8IL11); test: P. falciparum M17LAP inhibitors, primary screen, biochemical, fluorogenic H-Leu-NHMec substrate, 1536-well (AID 1619); assay type: functional
T3 sequence (Q8IL11 whole entry): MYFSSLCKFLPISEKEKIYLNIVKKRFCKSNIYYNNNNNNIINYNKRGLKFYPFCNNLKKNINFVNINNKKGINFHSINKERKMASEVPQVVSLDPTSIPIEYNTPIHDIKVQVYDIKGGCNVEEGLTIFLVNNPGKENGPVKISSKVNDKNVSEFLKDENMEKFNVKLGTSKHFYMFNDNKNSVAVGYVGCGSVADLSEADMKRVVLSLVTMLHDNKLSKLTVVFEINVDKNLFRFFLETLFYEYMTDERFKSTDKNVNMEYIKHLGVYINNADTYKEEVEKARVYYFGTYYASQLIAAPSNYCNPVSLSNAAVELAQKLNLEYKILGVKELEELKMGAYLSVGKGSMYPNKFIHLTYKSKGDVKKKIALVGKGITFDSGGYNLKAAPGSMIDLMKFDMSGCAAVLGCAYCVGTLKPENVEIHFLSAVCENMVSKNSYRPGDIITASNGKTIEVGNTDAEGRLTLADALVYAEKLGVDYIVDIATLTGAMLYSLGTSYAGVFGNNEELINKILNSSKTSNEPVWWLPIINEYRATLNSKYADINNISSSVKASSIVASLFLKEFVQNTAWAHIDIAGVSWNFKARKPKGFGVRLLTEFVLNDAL

HEK293 = test: inhibitors of LMP1-driven NF-kB reporter, dose response, cell-based, HEK293, luciferase, cherry-pick (AID 588343); assay type: functional; conditions: Homo sapiens
cells [18] = assay type: functional
[19] = THP-1 cell cytotoxicity, dose response, cytotoxicity control for non-replicating M. tuberculosis project (AID 489025); assay type: functional
[20] = molecular target: Induced myeloid leukemia cell differentiation protein Mcl-1 (Homo sapiens, UniProt Q07820); assay type: functional
Large T antigen = Large T antigen (Simian virus 40, UniProt P03070); assay type: functional, Betapolyomavirus macacae;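 further: Confirmatory-stage PubChem screen for compounds that inhibit SV40 T antigen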
Vero = test: cells; assay type: functional, cell-based; conditions: Chlorocebus sabaeus

Chain of DNA dC->dU-editing enzyme APOBEC-3G (Q9HC16 whole entry): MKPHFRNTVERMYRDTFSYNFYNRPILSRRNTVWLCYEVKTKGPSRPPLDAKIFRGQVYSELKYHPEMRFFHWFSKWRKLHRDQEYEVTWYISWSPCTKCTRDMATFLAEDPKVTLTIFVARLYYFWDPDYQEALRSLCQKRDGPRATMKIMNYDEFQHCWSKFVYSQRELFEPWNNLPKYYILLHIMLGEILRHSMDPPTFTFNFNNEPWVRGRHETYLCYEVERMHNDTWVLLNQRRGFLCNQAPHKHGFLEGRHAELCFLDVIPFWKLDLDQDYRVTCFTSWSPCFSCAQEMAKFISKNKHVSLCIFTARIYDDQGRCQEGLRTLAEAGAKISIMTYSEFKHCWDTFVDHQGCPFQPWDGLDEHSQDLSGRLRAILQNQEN
Chain of DNA dC->dU-editing enzyme APOBEC-3A (P31941 whole entry): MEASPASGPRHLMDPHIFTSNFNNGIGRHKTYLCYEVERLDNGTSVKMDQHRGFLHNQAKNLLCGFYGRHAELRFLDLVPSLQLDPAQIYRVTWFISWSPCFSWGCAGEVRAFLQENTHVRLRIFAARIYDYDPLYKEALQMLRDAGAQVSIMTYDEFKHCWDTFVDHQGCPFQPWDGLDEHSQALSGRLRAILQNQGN
Chain of Eukaryotic translation initiation factor 4E (P63073 whole entry): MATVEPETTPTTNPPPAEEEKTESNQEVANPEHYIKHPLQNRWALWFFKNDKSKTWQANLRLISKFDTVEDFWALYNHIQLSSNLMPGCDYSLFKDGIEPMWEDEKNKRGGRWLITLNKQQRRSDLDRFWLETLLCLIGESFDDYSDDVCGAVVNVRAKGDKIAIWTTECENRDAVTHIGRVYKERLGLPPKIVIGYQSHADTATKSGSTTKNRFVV
Chain of Genome polyprotein (P29990 2492-3391 limits assumed): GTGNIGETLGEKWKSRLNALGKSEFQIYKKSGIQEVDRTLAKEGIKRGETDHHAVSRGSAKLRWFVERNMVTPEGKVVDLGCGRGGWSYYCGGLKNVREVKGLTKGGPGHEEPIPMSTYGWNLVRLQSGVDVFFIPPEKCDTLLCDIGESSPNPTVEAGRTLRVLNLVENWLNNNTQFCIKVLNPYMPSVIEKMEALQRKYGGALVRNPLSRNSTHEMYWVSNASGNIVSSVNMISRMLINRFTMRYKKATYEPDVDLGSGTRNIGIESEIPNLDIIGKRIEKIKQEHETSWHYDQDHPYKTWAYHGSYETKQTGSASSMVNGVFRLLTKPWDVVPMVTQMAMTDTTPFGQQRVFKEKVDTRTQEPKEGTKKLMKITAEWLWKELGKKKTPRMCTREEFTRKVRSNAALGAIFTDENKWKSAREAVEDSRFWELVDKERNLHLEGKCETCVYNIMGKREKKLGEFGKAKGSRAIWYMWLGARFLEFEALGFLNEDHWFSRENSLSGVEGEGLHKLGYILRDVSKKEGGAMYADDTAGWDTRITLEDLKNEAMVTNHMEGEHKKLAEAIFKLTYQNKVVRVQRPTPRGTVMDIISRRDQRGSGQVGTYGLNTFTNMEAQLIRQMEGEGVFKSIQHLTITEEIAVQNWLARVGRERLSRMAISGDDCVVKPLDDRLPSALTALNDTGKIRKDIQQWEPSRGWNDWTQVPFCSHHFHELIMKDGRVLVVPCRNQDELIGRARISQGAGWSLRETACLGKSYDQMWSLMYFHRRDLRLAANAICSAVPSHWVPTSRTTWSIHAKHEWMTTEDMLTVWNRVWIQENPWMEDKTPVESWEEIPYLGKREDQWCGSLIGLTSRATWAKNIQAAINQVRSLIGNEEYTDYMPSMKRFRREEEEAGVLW
Chain of Induced myeloid leukemia cell differentiation protein Mcl-1 (Q07820 whole entry): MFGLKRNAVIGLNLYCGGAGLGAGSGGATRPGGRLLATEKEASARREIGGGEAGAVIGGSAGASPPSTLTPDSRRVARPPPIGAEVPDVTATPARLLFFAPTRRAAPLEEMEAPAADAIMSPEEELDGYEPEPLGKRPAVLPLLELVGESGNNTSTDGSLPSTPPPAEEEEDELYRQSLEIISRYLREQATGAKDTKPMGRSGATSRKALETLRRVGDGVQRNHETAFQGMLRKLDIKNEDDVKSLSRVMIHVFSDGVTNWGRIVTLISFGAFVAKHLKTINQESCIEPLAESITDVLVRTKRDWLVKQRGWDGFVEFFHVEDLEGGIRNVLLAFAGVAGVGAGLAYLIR
Chain of Large T antigen (P03070 whole entry): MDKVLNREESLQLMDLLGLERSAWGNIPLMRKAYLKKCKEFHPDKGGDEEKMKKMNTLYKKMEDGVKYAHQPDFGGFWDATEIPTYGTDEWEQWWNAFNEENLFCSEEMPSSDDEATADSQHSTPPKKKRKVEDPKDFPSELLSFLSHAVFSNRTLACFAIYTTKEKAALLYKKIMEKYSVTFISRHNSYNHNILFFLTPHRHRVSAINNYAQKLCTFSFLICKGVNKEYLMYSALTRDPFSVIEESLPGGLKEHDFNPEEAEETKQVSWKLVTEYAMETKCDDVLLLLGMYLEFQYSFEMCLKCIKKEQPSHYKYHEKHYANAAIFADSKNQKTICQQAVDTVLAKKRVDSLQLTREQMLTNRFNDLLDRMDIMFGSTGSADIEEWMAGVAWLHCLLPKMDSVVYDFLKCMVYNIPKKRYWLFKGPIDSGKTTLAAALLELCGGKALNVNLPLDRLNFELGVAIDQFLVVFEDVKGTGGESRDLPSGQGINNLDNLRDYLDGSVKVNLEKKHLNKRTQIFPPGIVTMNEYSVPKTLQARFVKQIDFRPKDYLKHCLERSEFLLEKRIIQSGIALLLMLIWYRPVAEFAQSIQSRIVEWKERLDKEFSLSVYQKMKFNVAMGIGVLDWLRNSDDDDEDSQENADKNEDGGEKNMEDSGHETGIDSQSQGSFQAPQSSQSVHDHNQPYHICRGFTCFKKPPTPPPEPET

## CCOc1ccc2ccccc2c1/C=N\NC(=O)OC
[1]
  AC50: 48.5 µM (active)

## CN(Cc1ccc(Cl)c(Cl)c1)C(=O)C1=CC=CN2CCS(=O)(=O)N=C12
[2]
  IC50: 12.2 µM (active)
[3]
  IC50: 8.45 µM (active)

## C[C@]12CC[C@H](O)CC1=CCC1C2CC[C@@]2(C)C1CC[C@@H]2NC(=O)[C@@H](N)Cc1c[nH]cn1 (stereo partly specified)
[4]
  AC50: 0.952 µM (active)

## COc1ccc(-[n+]2c(-c3ccc(Br)cc3)cn3c2CCc2ccccc2-3)cc1
[5]
  EC50: > 120 µM (not active)
[6]
  EC50: > 30 µM (not active)
INS1
  AC50: 2.15 µM (active)
[7]
  EC50: 0.424 µM (active)
[8]
  EC50: > 160 µM (inactive)
H4
  EC50: > 120 µM (not active)
[9]
  EC50: > 120 µM (not active)
[10]
  IC50: > 80 µM (inactive)
[11]
  EC50: 1.62 µM (active)

## Nc1nc(N)nc(-c2ccc(Cl)cc2)n1
[5]
  EC50: > 120 µM (not active)
H4
  EC50: > 120 µM (not active)
[9]
  EC50: 12.2 µM (active)
[12]
  AC50: 10.6 µM (active)

## Cc1nc(Nc2c(Cl)cccc2Cl)sc1C(=O)Nc1ccccc1
[10]
  IC50: > 80 µM (inactive)

## COc1ccc(NC(=O)c2cc(-c3ccco3)nc3ccccc23)cn1
[2]
  IC50: 22.5 µM (active)
[3]
  IC50: 16.9 µM (active)

## Cc1ccc(SCCOCCN2CC(C)OC(C)C2)cc1 (stereo unspecified)
[6]
  EC50: > 60 µM (not active)
Cells [13]
  EC50: 0.007 µM (active)
[7]
  EC50: < 0.1 µM (active)

## COc1cc(CN2CCCC(CCC(=O)NCc3ccc(C)o3)C2)cc2c1OCO2 (stereo unspecified)
[6]
  EC50: > 60 µM (not active)
Cells [13]
  EC50: 0.015 µM (active)
[7]
  EC50: < 0.1 µM (active)

## O=C(O)CSc1ccccn1
[14]
  IC50: > 64 µM (inactive)

## Cc1ncc(CN2CCCC(CCC(=O)NCc3ccc(F)c(F)c3)C2)s1 (stereo unspecified)
[6]
  EC50: > 60 µM (inconclusive)
Cells [13]
  EC50: 0.14 µM (active)
[7]
  EC50: < 0.1 µM (active)

## Cc1ccc(C)c(S(=O)(=O)Nc2ccccc2C(=O)Nc2ccc(S(=O)(=O)Nc3ncccn3)cc2)c1
Genome polyprotein
  IC50: > 100 µM (active)

## CC(=O)c1ccc(Nc2nc(C(N)Cc3ccc(N)cc3)cs2)cc1 (stereo unspecified)
[4]
  AC50: 30.4 µM (active)

## COc1ccc(CCOC(=O)c2ccc(NC(=O)CC#N)cc2)cc1
Cells [15]
  IC50: 9.43 µM (active)
[16]
  CC50: > 50 µM (active)

## COC(=O)CSc1nnc(-c2sc3ccccc3c2Cl)o1
[10]
  IC50: > 80 µM (inactive)

## COc1ccc(S(=O)(=O)N2CCN(CCO)CC2)cc1-c1nnc2c3ccccc3c(C)nn12
[17]
  EC50: > 195 µM (not active)
Cells [15]
  IC50: 4.08 µM (active)

## CC(NC(=O)CSc1nnc(CC(=O)Nc2ccc(Cl)c(Cl)c2)n1C)c1ccccc1 (stereo unspecified)
[14]
  IC50: > 64 µM (inactive)

## Cc1ccc(C)c(NC(=O)C2CC(Cl)=CCC2C(=O)O)c1 (stereo unspecified)
Leucine aminopeptidase
  IC50: 18.6 µM (active)

## COc1cccc(CNC(=O)c2cccc(S(=O)(=O)N3CCN(C)CC3)c2)c1
[2]
  IC50: 8.69 µM (active)
[3]
  IC50: 5.44 µM (active)

## COc1ccc(OCc2cccc(C(=O)NN)c2)cc1
HEK293
  AC50: 3.57 µM (active)
[10]
  IC50: > 80 µM (inactive)

## COc1ccc(C2(O)CCN(CC(=O)Nc3nc(-c4ccccc4)cs3)CC2)cc1
Cells [18]
  IC50: 16.7 µM (active)
[19]
  CC50: > 40 µM (active)

## CC(=O)Nc1ccc(C(=O)Nc2cccc(-c3cnc4ccccc4n3)c2)cc1
[20]
  IC50: 25.5 µM (not active)
[14]
  IC50: 50 µM (inactive)

## O=C(O)/C=C/C(=O)Nc1ccc(Oc2ccc(NC(=O)/C=C/C(=O)O)cc2)cc1
Large T antigen
  IC50: > 100 µM (active)
Leucine aminopeptidase
  IC50: 14.8 µM (active)

## O=C(O)C1CC=CCC1C(=O)Nc1ccc(S(=O)(=O)N2CCCc3ccccc32)cc1 (stereo unspecified)
Vero
  IC50: 16.4 µM (active)
Cells [15]
  IC50: 2.91 µM (active)
[16]
  CC50: 15.7 µM (active)

## C=CCc1cc(Cl)ccc1OCCCn1ccnc1
Cells [18]
  IC50: 16.7 µM (active)
[6]
  EC50: > 60 µM (not active)
[7]
  EC50: 2.12 µM (active)
[19]
  CC50: > 40 µM (active)
